Values after ≈ are worked out from the molar mass of the structure shown. Like-named read-outs stand apart in the source and are kept apart here. Numbered stars: 1 amine (or outer) side, 2 acyl side, 3 side chain; on linkers, the order of the positions; unused ones are H or OH. Bridge positions count the residues as written; N and C are the ends. Square brackets hold non-standard residues; d marks the D form. Peptide text beside a SMILES is read from it. * marks the point of attachment. Phe(3,5-F2) = N[C@@H](Cc1cc(F)cc(F)c1)C(=O)O; NH(1-Me-indolin-5-yl) = CN1CCc2cc(N*)ccc21; Morpholine(3S-CO) = O=C(O)[C@@H]1COCCN1; Phe(3-Me) = Cc1cccc(C[C@H](N)C(=O)O)c1; NH(4-Cl-2-F-phenyl) = Fc1cc(Cl)ccc1N*; Pro(4R-Me) = C[C@H]1CN[C@H](C(=O)O)C1; Hyp = O=C(O)[C@@H]1C[C@@H](O)CN1; aThr = C[C@H](O)[C@H](N)C(=O)O; Pip = O=C(O)[C@@H]1CCCCN1; CO = O=C([*:1])[*:2]
Tests used:
[1] = Plasma protein binding, rapid equilibrium dialysis; type: in vitro ADME, mouse
[2] = test system: S. pneumoniae; test: Minimal inhibitory concentration, microbroth dilution; type: cell-based; details: Streptococcus pneumoniae, read-out: Minimal Inhibitory Concentrations (μM) S. pneumoniae
Summary of the method: (§1)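 Susceptibility testing used the CLSI dilution standard, with bacteria at ~10^5 cfu/mL exposed to a two-fold compound series beginning at 200 μM final. The endpoint is the lowest concentration showing no growth after overnight incubation (37 °C, aerobic).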

[3] = test system: S. aureus USA 300; test: as above; type: cell-based; details: Staphylococcus aureus
Summary of the method: as §1

[4] = test system: S. pyogenes; test: as above; type: cell-based; details: Streptococcus pyogenes, read-out: Minimal Inhibitory Concentrations (μM) S. pyogenes
Summary of the method: as §1

[5] = test system: B. subtilis; test: as above; type: cell-based; details: Bacillus subtilis, read-out: Minimal Inhibitory Concentrations (μM) B. subtilis
Summary of the method: as §1

[6] = test system: E. faecails; test: as above; type: cell-based; details: Enterococcus faecalis
Summary of the method: as §1

[7] = test system: S. aureus ATCC 29213; test: as above; type: cell-based; details: Staphylococcus aureus
Summary of the method: as §1

[8] = test system: MRSA NRS70; test: as above; type: cell-based; details: Staphylococcus aureus
Summary of the method: as §1

[9] = Plasma protein binding, rapid equilibrium dialysis; type: in vitro ADME, human; details: 10 μM
Summary of the method: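 Compound spiked at 10 μM (0.1% DMSO) into human plasma, dialysed against DPBS pH 7.4 across 8 K MWCO RED membrane for 4 h at 37 °C with shaking. Both chambers quantified by LC-MS against warfarin internal standard; % free = buffer/plasma concentration ×100, % bound = 100 − % free.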

[10] = Cytotoxicity assay (CellTiter-Glo cell viability); type: cell-based; details: African green monkey
Method: Cytotoxicity was determined by determining the effect of compounds on cell viability. Vero (kidney epithelial cells; ATCC CCL-81) monolayers were trypsinized and 5000 cells/well were seeded (10-15% confluency) into white-wall, flat bottom 96 well microwell plates (Corning) using enriched Dulbecco's Modified Eagle's Medium (Hyclone: DMEM/High Glucose) containing 10% Fetal Bovine Serum (ATCC-30-2020). Plates were incubated overnight at 37° C. in the presence of 5% CO2. Drug-free media was then replaced with media containing serial dilutions of test compound or DMSO carrier. After an additional 72 hours of incubation, viability was indirectly measured using the CellTiter-Glo® Luminescent Cell Viability (Promega) assay. Assay plates were read at peak emission wavelength of 560 nm using a EnVision® Multilabel Plate Reader (Perkin Elmer) or PHERAstar FS Multilabel reader (BMG, Cary, N.C.). The concentration of test compounds that inhibited growth by 50% (IC50 value) was computed using nonlinear regression based fitting of inhibition curves using log [inhibitor] vs. response-variable slope (four parameters)—symmetrical equation, in GraphPad Prism version 6 [GraphPad Software, La Jolla, Calif. USA, www.graphpad.com]. For each experiment, compounds were tested in duplicate. IC50 values presented are the range of two biologically independent experiments.

[11] = test system: S. aureus ΔClpP; test: Minimal inhibitory concentration, microbroth dilution; type: cell-based, Staphylococcus aureus; details: MIC; ClpP inactivated
Summary of the method: as §1

[12] = Plasma pharmacokinetics; type: in vivo, male BALB/c mice; details: male, BALB/c, mouse, in vivo, iv
[13] = USA300, MIC, read-out: Minimal Inhibitory Concentrations (μM) S. aureus USA 300
[14] = MIC, read-out: Minimal Inhibitory Concentrations (μM) E. faecails
[15] = ATCC29213, MIC, read-out: Minimal Inhibitory Concentrations (μM) S. aureus ATCC 29213
[16] = MIC, read-out: Minimal Inhibitory Concentrations (μM) MRSA NRS70

In the case of `Cc1cccc(C[C@H](NC(=O)Nc2ccc(Cl)cc2F)C(=O)N[C@H]2COC(=O)[C@@H]3C[C@@H](C)CN3C(=O)[C@H](C)NC(=O)[C@@H]3CCCCN3C(=O)[C@@H]3C[C@H](N)CN3C2=O)c1` [Compound 12, (S)—N-((2R,6S,8AS,14AS,16S,20S,23AS)-16-AMINO-2,6-DIMETHYL-5,8,14,19,23-PENTAOXOOCTADECAHYDRO-1H,5H,14H,19H-PYRIDO[2,1-I]DIPYRROLO[2,1-C:2′,1′-L][1]OXA[4,7,10,13]TETRAAZACYCLOHEXADECIN-20-YL)-2-(3-(4-CHLORO-2-FLUOROPHENYL)UREIDO)-3-(M-TOLYL)PROPANAMIDE], the Mouse ([1]; mouse, 4 h, 10 μM, pH 7.4) is reported as 99.6 ± 0.0%, the MIC ([2]; MIC) is reported as 0.156 µM (≈ 0.129 µg/mL) and the MIC [3, 13] is reported as 0.625 µM (≈ 0.516 µg/mL). The MIC ([4]; MIC) was 0.313 µM (≈ 0.258 µg/mL), the MIC ([5]; MIC) was 1.25 µM (≈ 1.03 µg/mL) and the MIC [6, 14] was 1.25 µM (≈ 1.03 µg/mL). It also gave an MIC [7, 15] of 1.25 µM (≈ 1.03 µg/mL), an MIC [8, 16] of 1.25 µM (≈ 1.03 µg/mL) and a Human ([9]; human, 4 h, pH 7.4) of 99.9 ± 0.2%. For the same compound, the IC50 at 72 h [10] was > 50 µM and the “Minimal Inhibitory Concentrations (μM) S. aureus ΔClpP” value [11] was >20 µM.

With `Cc1cccc(C[C@H](NC(=O)Nc2ccc(Cl)cc2F)C(=O)N[C@@H]2C(=O)N3C[C@H](O)C[C@H]3C(=O)N3CCCC[C@H]3C(=O)N[C@@H](C)C(=O)N3C[C@H](C)C[C@H]3C(=O)O[C@H]2C)c1` [Compound 6, (S)-2-(3-(4-CHLORO-2-FLUOROPHENYL)UREIDO)-N-((2R,6S,8AS,14AS,16R,20S,21S,23AS)-16-HYDROXY-2,6,21-TRIMETHYL-5,8,14,19,23-PENTAOXOOCTADECAHYDRO-1H,5H,14H,19H-PYRIDO[2,1-I]DIPYRROLO[2,1-C:2′,1′-L][1]OXA[4,7,10,13]TETRAAZACYCLOHEXADECIN-20-YL)-3-(M-TOLYL)PROPANAMIDE] ({NH(4-Cl-2-F-phenyl)-CO}-[Phe(3-Me)][aThr][Hyp][Pip]A[Pro(4R-Me)]; ester 2-C) the AUC(0-inf) [12] was 11900 ng·h/mL, the AUC(0-t) [12] was 11500 ng·h/mL and the “C^0” value [12] was 34296.43 ng/mL. For the same compound, the clearance [12] was 14 mL/min/kg, the half-life [12] was 2.82 h and the Vd ([12]; 10 mg/kg, Route i.v., read-out: Vss) was 1.02 L/kg. For the same compound, the Mouse ([1]; mouse, 4 h, 10 μM, pH 7.4) was 99.5 ± 0.1%, the MIC ([2]; MIC) was 0.039 µM (≈ 0.0328 µg/mL) and the MIC [3, 13] was 0.156 µM (≈ 0.131 µg/mL). It also gave an MIC ([4]; MIC) of 0.156 µM (≈ 0.131 µg/mL), an MIC ([5]; MIC) of 0.156 µM (≈ 0.131 µg/mL) and an MIC [6, 14] of 0.078 µM (≈ 0.0655 µg/mL). For the same compound, the MIC [7, 15] was 0.078 µM (≈ 0.0655 µg/mL), the MIC [8, 16] was 0.078 µM (≈ 0.0655 µg/mL) and the Human ([9]; human, 4 h, pH 7.4) was 99.7 ± 0%. For the same compound, the IC50 at 72 h [10] was 50.5 ± 3.8 µM and the “Minimal Inhibitory Concentrations (μM) S. aureus ΔClpP” value [11] was >20 µM.

Compound `Cc1cccc(C[C@H](NC(=O)Nc2ccc(Cl)cc2F)C(=O)N[C@H]2COC(=O)[C@@H]3C[C@@H](C)CN3C(=O)[C@H](C)NC(=O)[C@@H]3CCCCN3C(=O)[C@@H]3CCCN3C2=O)c1` [Compound 8, (S)-2-(3-(4-CHLORO-2-FLUOROPHENYL)UREIDO)-N-((2R,6S,8AS,14AS,20S,23AS)-2,6-DIMETHYL-5,8,14,19,23-PENTAOXOOCTADECAHYDRO-1H,5H,14H,19H-PYRIDO[2,1-I]DIPYRROLO[2,1-C:2′,1′-L][1]OXA[4,7,10,13]TETRAAZACYCLOHEXADECIN-20-YL)-3-(M-TOLYL)PROPANAMIDE] has a Mouse ([1]; mouse, 4 h, 10 μM, pH 7.4) of 98.9 ± 0.4%, an MIC ([2]; MIC) of 0.078 µM (≈ 0.0632 µg/mL) and an MIC [3, 13] of 0.313 µM (≈ 0.254 µg/mL). It also gave an MIC ([4]; MIC) of 0.156 µM (≈ 0.126 µg/mL), an MIC ([5]; MIC) of 0.156 µM (≈ 0.126 µg/mL) and an MIC [6, 14] of 0.156 µM (≈ 0.126 µg/mL). The MIC [7, 15] was 0.625 µM (≈ 0.506 µg/mL), the MIC [8, 16] was 0.156 µM (≈ 0.126 µg/mL) and the Human ([9]; human, 4 h, pH 7.4) was 98.2 ± 0.2%. The IC50 at 72 h [10] was > 10 µM and the “Minimal Inhibitory Concentrations (μM) S. aureus ΔClpP” value [11] was >20 µM.

`C[C@@H]1C[C@H]2C(=O)O[C@@H](C)[C@H](NC(=O)[C@H](Cc3cc(F)cc(F)c3)NC(=O)Nc3ccc4c(c3)CCN4C)C(=O)N3CCC[C@H]3C(=O)N3CCOC[C@H]3C(=O)N[C@@H](C)C(=O)N2C1` [Compound 32] ({NH(1-Me-indolin-5-yl)-CO}-[Phe(3,5-F2)][aThr]P[Morpholine(3S-CO)]A[Pro(4R-Me)]; ester 2-C) gave a Mouse ([1]; plasma binding, % Bound, mouse plasma) of 91.5 ± 1.5%, an MIC [2] of 0.078 µM (≈ 0.0664 µg/mL) and an MIC ([3]; USA300, read-out: Minimal Inhibitory Concentrations (μM) S. aureus USA 300, MIC) of 0.156 µM (≈ 0.133 µg/mL). The MIC [4] was 0.156 µM (≈ 0.133 µg/mL), the MIC [5] was 0.313 µM (≈ 0.266 µg/mL) and the MIC ([6]; read-out: Minimal Inhibitory Concentrations (μM) E. faecails, MIC) was 0.039 µM (≈ 0.0332 µg/mL). The MIC ([7]; ATCC29213, read-out: Minimal Inhibitory Concentrations (μM) S. aureus ATCC 29213, MIC) was 0.156 µM (≈ 0.133 µg/mL), the MIC ([8]; read-out: Minimal Inhibitory Concentrations (μM) MRSA NRS70, MIC) was 0.078 µM (≈ 0.0664 µg/mL) and the Human ([9]; plasma binding, % Bound, human plasma) was 83.0 ± 3.0%. The IC50 at 72 h ([10]; Vero cells, 72 hours, read-out: Cytotoxicity IC50) was 2.87 µM and the “Minimal Inhibitory Concentrations (μM) S. aureus ΔClpP” value [11] was >20 µM.
